Earlier results in patent publication US4024245A, “Antibiotic A-30912 and process for production thereof” (priority 1976, dated 1977).

System: dermatophytes
Details: F. Benz et al., Helv. Chim. Acta 57, 2459-2477 (1974)

Question: Which activity against dermatophytes does the source give for Echinocandin B here?
Answer: The activity against dermatophytes was “inactive against dermatophytes”.
